# Source: patent publication EP1432683B9 (Recordati Ireland Limited, priority 2001, dated 2003)
# Structures can show the parent of a compound that is named as a salt. Where two headings read alike, the source gives them in different places.
# How the values were obtained:
# [1] = Hygroscopicity by DVS analysis; format: physicochemical; conditions: 25°C
# Procedure: The hygroscopicity of both crystalline Forms (I) and (II) was measured with DVS analysis by means of a water absorption analyzer (SURFACE MEASUREMENT SYSTEM, Marion, Buckinghamshire, UK) according to the following working conditions: […]
# [2] = Relative bioavailability of Form (I) and Form (II) in man; format: in vivo; conditions: 10 mg tablet
# Procedure: Blood samples were taken at 15 points from time 0 to 24 h post-dosing and plasma concentrations of lercanidipine were determined with a stereoselective analytical method HPLC-MS/MS.
# [3] = Bioavailability of crystalline Forms (I) and (II) in dogs; format: in vivo, Beagle dogs; conditions: for AUC0-t / Cmax / concentration in plasma of lercanidipine (S+R): oral 3 mg/kg
# Procedure: A study was carried out on six Beagle dogs to evaluate the bioavailability of crystalline Forms (I) and (II).
# Blood samples were taken at given times and plasma concentrations of lercanidipine were determined with a stereoselective analytical method HPLC-MS/MS, according to the following working conditions;
# Lercanidipine was extracted from dog plasma by means of a liquid-liquid extraction with a mixture of n-hexane and ethyl ether. The dry residue of the organic phase was taken up with a mixture of methanol and water and a liquid-phase chromatographic separation (LC) was carried out; the two enantiomers of lercanidipine were separated on a CHIROBIOTIC V column (Vancomycin) (particle size […], column size 150 x 4.6 mm (ASTEC, NJ, USA)) and were detected with a mass spectrometer (MS/MS) by using an electrospray technique.
# The analytical method was validated in a concentration range between 0.1 and 20 ng/ml of plasma for both enantiomers. The method has shown to be specific with an accuracy of 15%. The average concentrations of lercanidipine in the tables represent the sum of both enantiomers.
# [4] = Solubility in mixtures of water-ethanol at 25°C and 40°C; format: physicochemical
smiles,measurement,setting,value
"COC(=O)C1=C(C)NC(C)=C(C(=O)OC(C)(C)CN(C)CCC(c2ccccc2)c2ccccc2)C1c1cccc([N+](=O)[O-])c1 (single isomer, unassigned) [Form (I), lercanidipine hydrochloride]",mass change,[1]; at 0% RH,-0.3%
same,mass change,[1]; at 95% RH,+0.15%
same,tmax compared with Form (II),[2],shorter than that of Form (II)
same,AUC(0-t) at 24 h,"[2]; human, plasma, po, 10 mg, single dose, geom. least square mean",8.82 ng·h/mL
same,Cmax,"[2]; human, plasma, po, 10 mg, single dose, geom. least square mean, read-out: Cmax",3.18 ng/mL
same,Tmax,"[2]; human, plasma, po, 10 mg, single dose, median, read-out: tmax",1.5 h
same,AUC0-t,"[3]; Dog 1, hydrochloride, 3 mg/kg",15.41 ng/h/mL
same,Cmax,"[3]; Dog 1, hydrochloride, 3 mg/kg",8.29 ng/mL
same,Cmax,"[3]; Dog 2 (not included in mean), hydrochloride, 3 mg/kg",128.87 ng/mL
same,AUC0-t,"[3]; Dog 3, hydrochloride, 3 mg/kg",27.544 ng/h/mL
same,Cmax,"[3]; Dog 3, hydrochloride, 3 mg/kg",11.62 ng/mL
same,AUC0-t,"[3]; Dog 4, hydrochloride, 3 mg/kg",46.57 ng/h/mL
same,Cmax,"[3]; Dog 4, hydrochloride, 3 mg/kg",27.17 ng/mL
same,AUC0-t,"[3]; Dog 5, hydrochloride, 3 mg/kg",70.39 ng/h/mL
same,Cmax,"[3]; Dog 5, hydrochloride, 3 mg/kg",22.58 ng/mL
same,AUC0-t,"[3]; Dog 6, hydrochloride, 3 mg/kg",28.72 ng/h/mL
same,Cmax,"[3]; Dog 6, hydrochloride, 3 mg/kg",17.83 ng/mL
same,Cmax,"[3]; Mean (n=5, Dog 2 not included), hydrochloride, 3 mg/kg",17.50 ng/mL
same,concentration in plasma of lercanidipine (S+R),"[3]; Time 0 h, Dog 1",0.00 ng/mL
same,concentration in plasma of lercanidipine (S+R),"[3]; Time 0 h, Dog 2 (not included in mean)",0.00 ng/mL
same,concentration in plasma of lercanidipine (S+R),"[3]; Time 0 h, Dog 3",0.00 ng/mL
same,concentration in plasma of lercanidipine (S+R),"[3]; Time 0 h, Dog 4",0.00 ng/mL
same,concentration in plasma of lercanidipine (S+R),"[3]; Time 0 h, Dog 5",0.00 ng/mL
same,concentration in plasma of lercanidipine (S+R),"[3]; Time 0 h, Dog 6",0.00 ng/mL
same,concentration in plasma of lercanidipine (S+R),"[3]; Time 0 h, Mean (Dog 2 not included)",0.00 ng/mL
same,concentration in plasma of lercanidipine (S+R),"[3]; Time 0.5 h, Dog 2 (not included in mean), hydrochloride, 3 mg/kg, 30 min",0.20 ng/mL
same,concentration in plasma of lercanidipine (S+R),"[3]; Time 0.5 h, Dog 3, hydrochloride, 3 mg/kg",0.00 ng/mL
same,concentration in plasma of lercanidipine (S+R),"[3]; Time 0.5 h, Dog 4",0.00 ng/mL
same,concentration in plasma of lercanidipine (S+R),"[3]; Time 0.5 h, Dog 5",0.00 ng/mL
same,concentration in plasma of lercanidipine (S+R),"[3]; Time 0.5 h, Dog 6",0.00 ng/mL
same,concentration in plasma of lercanidipine (S+R),"[3]; Time 0.5 h, Mean (Dog 2 not included), hydrochloride, 3 mg/kg",0.00 ng/mL
same,concentration in plasma of lercanidipine (S+R),"[3]; Time 1 h, Dog 2 (not included in mean), hydrochloride, 3 mg/kg, 60 min",0.29 ng/mL
same,concentration in plasma of lercanidipine (S+R),"[3]; Time 1 h, Dog 3, hydrochloride, 3 mg/kg",0.00 ng/mL
same,concentration in plasma of lercanidipine (S+R),"[3]; Time 1 h, Dog 4, hydrochloride, 3 mg/kg",0.00 ng/mL
same,concentration in plasma of lercanidipine (S+R),"[3]; Time 1 h, Dog 5, hydrochloride, 3 mg/kg",0.00 ng/mL
same,concentration in plasma of lercanidipine (S+R),"[3]; Time 1 h, Dog 6",0.00 ng/mL
same,concentration in plasma of lercanidipine (S+R),"[3]; Time 1 h, Mean (Dog 2 not included), hydrochloride, 3 mg/kg, 60 min",0.12 ng/mL
same,concentration in plasma of lercanidipine (S+R),"[3]; Time 1.5 h, Dog 1, hydrochloride, 3 mg/kg, 90 min",1.83 ng/mL
same,concentration in plasma of lercanidipine (S+R),"[3]; Time 1.5 h, Dog 2 (not included in mean), hydrochloride, 3 mg/kg, 90 min",1.06 ng/mL
same,concentration in plasma of lercanidipine (S+R),"[3]; Time 1.5 h, Dog 3, hydrochloride, 3 mg/kg, 90 min",0.32 ng/mL
same,concentration in plasma of lercanidipine (S+R),"[3]; Time 1.5 h, Dog 4, hydrochloride, 3 mg/kg",0.00 ng/mL
same,concentration in plasma of lercanidipine (S+R),"[3]; Time 1.5 h, Dog 5, hydrochloride, 3 mg/kg, 90 min",1.33 ng/mL
same,concentration in plasma of lercanidipine (S+R),"[3]; Time 1.5 h, Dog 6, hydrochloride, 3 mg/kg",0.00 ng/mL
same,concentration in plasma of lercanidipine (S+R),"[3]; Time 1.5 h, Mean (Dog 2 not included), hydrochloride, 3 mg/kg, 90 min",0.70 ng/mL
same,concentration in plasma of lercanidipine (S+R),"[3]; Time 2 h, Dog 1, hydrochloride, 3 mg/kg, 120 min",8.29 ng/mL
same,concentration in plasma of lercanidipine (S+R),"[3]; Time 2 h, Dog 2 (not included in mean), hydrochloride, 3 mg/kg, 120 min",8.94 ng/mL
same,concentration in plasma of lercanidipine (S+R),"[3]; Time 2 h, Dog 3, hydrochloride, 3 mg/kg, 120 min",0.94 ng/mL
same,concentration in plasma of lercanidipine (S+R),"[3]; Time 2 h, Dog 4, hydrochloride, 3 mg/kg, 120 min",0.35 ng/mL
same,concentration in plasma of lercanidipine (S+R),"[3]; Time 2 h, Dog 5, hydrochloride, 3 mg/kg, 120 min",17.11 ng/mL
same,concentration in plasma of lercanidipine (S+R),"[3]; Time 2 h, Dog 6, hydrochloride, 3 mg/kg, 120 min",0.28 ng/mL
same,concentration in plasma of lercanidipine (S+R),"[3]; Time 2 h, Mean (Dog 2 not included), hydrochloride, 3 mg/kg, 120 min",5.39 ng/mL
same,concentration in plasma of lercanidipine (S+R),"[3]; Time 3 h, Dog 1, hydrochloride, 3 mg/kg, 180 min",4.44 ng/mL
same,concentration in plasma of lercanidipine (S+R),"[3]; Time 3 h, Dog 2 (not included in mean), hydrochloride, 3 mg/kg, 180 min",36.39 ng/mL
same,concentration in plasma of lercanidipine (S+R),"[3]; Time 3 h, Dog 3, hydrochloride, 3 mg/kg, 180 min",0.92 ng/mL
same,concentration in plasma of lercanidipine (S+R),"[3]; Time 3 h, Dog 4, hydrochloride, 3 mg/kg, 180 min",27.17 ng/mL
same,concentration in plasma of lercanidipine (S+R),"[3]; Time 3 h, Dog 5, hydrochloride, 3 mg/kg, 180 min",22.58 ng/mL
same,concentration in plasma of lercanidipine (S+R),"[3]; Time 3 h, Dog 6, hydrochloride, 3 mg/kg, 180 min",1.29 ng/mL
same,concentration in plasma of lercanidipine (S+R),"[3]; Time 3 h, Mean (Dog 2 not included), hydrochloride, 3 mg/kg, 180 min",11.28 ng/mL
same,concentration in plasma of lercanidipine (S+R),"[3]; Time 4 h, Dog 1, hydrochloride, 3 mg/kg, 240 min",1.81 ng/mL
same,concentration in plasma of lercanidipine (S+R),"[3]; Time 4 h, Dog 2 (not included in mean), hydrochloride, 3 mg/kg, 240 min",128.87 ng/mL
same,concentration in plasma of lercanidipine (S+R),"[3]; Time 4 h, Dog 3, hydrochloride, 3 mg/kg, 240 min",9.42 ng/mL
same,concentration in plasma of lercanidipine (S+R),"[3]; Time 4 h, Dog 4, hydrochloride, 3 mg/kg, 240 min",11.07 ng/mL
same,concentration in plasma of lercanidipine (S+R),"[3]; Time 4 h, Dog 5, hydrochloride, 3 mg/kg, 240 min",16.39 ng/mL
same,concentration in plasma of lercanidipine (S+R),"[3]; Time 4 h, Dog 6, hydrochloride, 3 mg/kg, 240 min",6.26 ng/mL
same,concentration in plasma of lercanidipine (S+R),"[3]; Time 4 h, Mean (Dog 2 not included), hydrochloride, 3 mg/kg, 240 min",8.99 ng/mL
same,concentration in plasma of lercanidipine (S+R),"[3]; Time 6 h, Dog 1, hydrochloride, 3 mg/kg, 360 min",0.80 ng/mL
same,concentration in plasma of lercanidipine (S+R),"[3]; Time 6 h, Dog 2 (not included in mean), hydrochloride, 3 mg/kg, 360 min",26.65 ng/mL
same,concentration in plasma of lercanidipine (S+R),"[3]; Time 6 h, Dog 3, hydrochloride, 3 mg/kg, 360 min",11.62 ng/mL
same,concentration in plasma of lercanidipine (S+R),"[3]; Time 6 h, Dog 4, hydrochloride, 3 mg/kg, 360 min",2.53 ng/mL
same,Tmax,"[3]; dog, plasma, po, 3 mg/kg, Dog 1, read-out: Tmax",2 h
same,Tmax,"[3]; dog, plasma, po, 3 mg/kg, Dog 4, read-out: Tmax",3 h
same,Tmax,"[3]; dog, plasma, po, 3 mg/kg, Dog 5, read-out: Tmax",3 h
same,Tmax,"[3]; dog, plasma, po, 3 mg/kg, Dog 6, read-out: Tmax",6 h
same,Tmax,"[3]; dog, plasma, po, 3 mg/kg, Mean (n=5, Dog 2 not included), read-out: Tmax",4 h
same,concentration at 0.5 h,"[3]; dog, plasma, po, 3 mg/kg, Time 0.5 h, Dog 1, read-out: concentration in plasma of lercanidipine (S+R)",0.1 ng/mL
same,concentration at 1 h,"[3]; dog, plasma, po, 3 mg/kg, Time 1 h, Dog 1, read-out: concentration in plasma of lercanidipine (S+R)",0.59 ng/mL
same,concentration at 6 h,"[3]; dog, plasma, po, 3 mg/kg, Time 6 h (last sampling time), Mean (Dog 2 not included), read-out: concentration in plasma of lercanidipine (S+R)",8.5 ± 6.5 ng/mL
same,concentration at 6 h,"[3]; dog, plasma, po, 3 mg/kg, Time 6 h, Dog 5, read-out: concentration in plasma of lercanidipine (S+R)",9.73 ng/mL
same,concentration at 6 h,"[3]; dog, plasma, po, 3 mg/kg, Time 6 h, Dog 6, read-out: concentration in plasma of lercanidipine (S+R)",17.8 ng/mL
same,solubility compared with Form (II),[4]; 25°C and 40°C,higher than that of crystalline Form (II)
same,water concentration at which the maximum solubility is reached,[4]; at both 25°C and 40°C,20%
